The values below come from patent publication US10576077B2, “Pharmaceutical salt forms of Cepharanthine and Tetrandrine” (Southwest Research Institute, priority 2015, dated 2020).

Counter-ions that a name gives are not always drawn.

Series [1] in a line: Solubility of Cepharanthine salts in water. It counts as physicochemical.
The format of series [2] is physicochemical. As to the method: A small amount of the sample (0.6 ml) was removed from each vial and centrifuged to collect 0.3 ml clear supernatant.
The sample was filtered through a 0.45 μm PTFE syringe filter and the filtrate sent for HPLC analysis (Table 10).

Another series deals with rat test animals. The series can be described thus: Oral dosing of concentrated CEPN.2HCl water solutions in rats. It counts as in vivo. Conditions: ENG sample, concentrated water solution.

In the case of `COc1ccc2cc1Oc1ccc(cc1)C[C@H]1c3c(cc4c(c3Oc3cc5c(cc3OC)CCN(C)[C@@H]5C2)OCO4)CCN1C` [HBr salt, Cepharanthine bis-hydrobromide], in series [1] (read-out: Final Concentration (solubility in water)), the solubility amounted to 17.1 mg/mL.
In series [2], CEPN.2HCl [16-0203-012-097-27] registered a Sample solubility of 31.9 mg/mL.
The same measure, in the same setting: then CEPN.2HCl [16-0203-012-098-10], with 38.7 mg/mL; and CEPN.2HCl [16-0203-012-098-27], with 39.7 mg/mL.
For CEPN.2HCl [16-0203-012-105-23], in series [2], the Sample solubility worked out at 36.5 mg/mL.
In turn, CEPN.2HCl [16-0203-012-119-35] came in with a Sample solubility in series [2] of 33.9 mg/mL.
Consider “Cepharanthine bis-pyruvate [Pyruvic acid salt]”, for which the “Final Concentration (solubility in water)” value in series [1] was determined as 488 mg/mL.
Regarding Cepharanthine.2HCl [CEPN.2HCl], in series [1], the “Final Concentration (solubility in water)” value came out at 51.6 mg/mL. In the series on rat test animals, the “Effect of oral dosing of concentrated water solutions” value is “gelation in the stomach of the rat test animals and resultant toxic effects”.
